In PubChem BioAssay AID2060885 (Molecular Pharmacology Branch, DTP, NCI, 2025):

System: NCI-H23 complex spheroids with HUVEC/MSC, viability
Experiment: Anticancer human tumor NCI-H23 cell line growth inhibition [RAS];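 note: spheroids exposed to compound for 7 days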;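 for viability, T/C: 100% = DMSO vehicle control viability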
Conditions: for IC50: curve of first compound; for viability, T/C: stronger effect = lower value
Description: RAS pathway inhibitors in Combinations in Complex Spheroids
A high-throughput screen of multi-cell type tumor spheroids was designed to identify active combinations of RAS pathway inhibitors and targeted small molecules. Complex spheroids include a stromal component modeled by human endothelial cells (HUVEC) and fibroblasts modeled by human mesenchymal stem cells (MSCs). The concentration ranges selected for each drug and investigational agent were based upon clinically achievable concentrations if the clinical Cmax of the agent was known.
Compounds. The drugs and investigational agents: abemaciclib (NSC768073), cobimetinib (NSC768068), divarasib (GDC6063, NSC841802), docetaxel (NSC628503), GDC-1971 (RLY-1971, NSC841576), gemcitabine (NSC613327), inavolisib (NSC800729), ipatasertib (NSC767898), KB-0742 (NSC834161), MRTX-1133 (NSC836407), osimertinib (NSC779217), RMC-4630 (NSC839698), RMC-6236 (NSC851965), RMC-6291 (NSC852671), Ro-3306 (NSC812927), sapanisertib (NSC764658), SN-38 (NSC673596), staurosporine (NSC755774), SY5609 (NSC837396), and tovorafenib (DAY101, NSC766906), were obtained from the National Cancer Institute (NCI) Developmental Therapeutics Program Chemical Repository. The FDA-approved anticancer drug set is available from the NCI Developmental Therapeutics Program. […] The stock solutions were prepared in dimethyl sulfoxide (DMSO, Sigma-Aldrich, St. Louis, MO, cat. D2650) at 800-fold the tested concentration and stored at -70 degrees C prior to their use. All drugs and investigational agents were tested over a range starting from a high concentration at or near the clinical Cmax and decreasing in half-log increments. If the clinical Cmax for an agent had not been determined, the highest concentration tested was 10 microM.
Cell Culture. All cells were maintained in an incubator at 37 degrees C and 5% CO2 with 95% humidity. The PDC lines were cultured according to standard operating procedures established by the NCI PDMR. All PDCs were thawed and cultured in Matrigel-coated flasks prepared with a working solution of 1X Ham's F-12 nutrient mix, without supplementation (Invitrogen, Waltham, MA, cat. 11765054), 100 U/mL penicillin-streptomycin (Invitrogen, cat. 15140122), and 2.5% Matrigel (Corning Inc., Corning, NY, cat. 354248) for the first three passages. The 362531-283-R-J2-PDC and 782815-120-R-J1-PDC lines were cultured in 6C/Colon 1B media, which includes advanced DMEM/F-12 (Thermo Fisher Scientific, cat. 12634028), 10 mM HEPES (Thermo Fisher Scientific, cat. 15630080), 1X GlutaMAX supplement (Thermo Fisher Scientific, cat. 35050061), 0.1 mg/mL primocin (InvivoGen, San Diego, CA, cat. ant-pm-2), 10% defined fetal bovine serum, heat inactivated (HyClone Laboratories Inc., Logan, UT, cat. SH30070.03HI), 50% L-WRN conditioned media (ATCC, cat. CRL-3276), 1.25 mM N-Acetyl-L-cysteine (Sigma-Aldrich, cat. A9165), 10 mM nicotinamide (Sigma-Aldrich, cat. N0636), 1X B-27 supplement (Thermo Fisher Scientific, cat. 17504044), 1X N-2 supplement (Thermo Fisher Scientific, cat. 17502048), 50 ng/mL human EGF (Thermo Fisher Scientific, cat. PHG0311), and 10 microM Y-27632 dihydrochloride (Tocris Bioscience, cat. 1254). The K12877-001-R-J1-PDC line was cultured in 6I media, which includes all 6C/Colon 1B media plus 10 ng/mL human FGF-10 (PeproTech, cat. 100-26), 1 ng/mL human FGF-2 (PeproTech, cat. 100-18B), 1 µM prostaglandin E2 (Tocris Bioscience, cat. 2296), […] hydrocortisone (Sigma-Aldrich, cat. H4001), and […] bovine insulin (Sigma-Aldrich, cat. I6634). The K86415-001-R-J1-PDC line was cultured in 6D media, which includes all 6C/Colon 1B media components minus the L-WRN conditioned media. The 485176-168-R4-J1-PDC was cultured in PANC media, which includes all 6C/Colon 1B media plus 100 ng/mL human FGF-10 (PeproTech, cat. 100-26), 500 nM SB-431542 (Selleckchem, cat. S1067), and 10 nM gastrin (Tocris Bioscience, cat. 3006). […]

## CC(C)NCC(C(=O)N1CCN(c2ncnc3c2C(C)CC3O)CC1)c1ccc(Cl)cc1 (configuration not stated) + C#Cc1c(F)ccc2cc(O)cc(-c3ncc4c(N5CC6CCC(C5)N6)nc(OCC56CCCN5CC(F)C6)nc4c3F)c12
Second compound 0.0316 µM
  IC50: > 10 µM
Second compound 0.1 µM
  IC50: > 10 µM
Second compound 0.316 µM
  IC50: > 10 µM
Second compound 1 µM
  IC50: > 10 µM
Second compound 3.16 µM
  IC50: 0.52 µM
Second compound 10 µM
  IC50: < 0.0316 µM
Second compound 0.0316 µM, first compound 0.0316 µM
  viability, T/C: 100%
Second compound 0.0316 µM, first compound 0.1 µM
  viability, T/C: 133%
Second compound 0.0316 µM, first compound 0.316 µM
  viability, T/C: 89.4%
Second compound 0.0316 µM, first compound 1 µM
  viability, T/C: 90.5%
Second compound 0.0316 µM, first compound 3.16 µM
  viability, T/C: 76%
Second compound 0.0316 µM, first compound 10 µM
  viability, T/C: 74.2%
Second compound 0.1 µM, first compound 0.0316 µM
  viability, T/C: 107%
Second compound 0.1 µM, first compound 0.1 µM
  viability, T/C: 122%
Second compound 0.1 µM, first compound 0.316 µM
  viability, T/C: 95.3%
Second compound 0.1 µM, first compound 1 µM
  viability, T/C: 91%
Second compound 0.1 µM, first compound 3.16 µM
  viability, T/C: 69.7%
Second compound 0.1 µM, first compound 10 µM
  viability, T/C: 66.6%
Second compound 0.316 µM, first compound 0.0316 µM
  viability, T/C: 122%
Second compound 0.316 µM, first compound 0.1 µM
  viability, T/C: 131%
Second compound 0.316 µM, first compound 0.316 µM
  viability, T/C: 99.7%
Second compound 0.316 µM, first compound 1 µM
  viability, T/C: 84.4%
Second compound 0.316 µM, first compound 3.16 µM
  viability, T/C: 70.2%
Second compound 0.316 µM, first compound 10 µM
  viability, T/C: 55.7%
Second compound 1 µM, first compound 0.0316 µM
  viability, T/C: 108%
Second compound 1 µM, first compound 0.1 µM
  viability, T/C: 101%
Second compound 1 µM, first compound 0.316 µM
  viability, T/C: 73.6%
Second compound 1 µM, first compound 1 µM
  viability, T/C: 66.7%
Second compound 1 µM, first compound 3.16 µM
  viability, T/C: 56.1%
Second compound 1 µM, first compound 10 µM
  viability, T/C: 49%
Second compound 3.16 µM, first compound 0.0316 µM
  viability, T/C: 68.6%
Second compound 3.16 µM, first compound 0.1 µM
  viability, T/C: 69%
Second compound 3.16 µM, first compound 0.316 µM
  viability, T/C: 51.6%
Second compound 3.16 µM, first compound 1 µM
  viability, T/C: 44.9%
Second compound 3.16 µM, first compound 3.16 µM
  viability, T/C: 37.9%
Second compound 3.16 µM, first compound 10 µM
  viability, T/C: 32.6%
Second compound 10 µM, first compound 0.0316 µM
  viability, T/C: 38.4%
Second compound 10 µM, first compound 0.1 µM
  viability, T/C: 40.9%
Second compound 10 µM, first compound 0.316 µM
  viability, T/C: 34.1%
Second compound 10 µM, first compound 1 µM
  viability, T/C: 26.1%
Second compound 10 µM, first compound 3.16 µM
  viability, T/C: 22.8%
Second compound 10 µM, first compound 10 µM
  viability, T/C: 18.5%
